Key:
Conditions in all cases: 48 h
P12-Ichikawa [1] = test: cell viability relative to DMSO control; higher = less cytotoxic
Method in brief: (§1)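 Viability values are per-plate percentages of DMSO wells, with background from cell-free wells. Library compounds in DMSO were pin-dosed, in an 11-point threefold series from 47 μM to 0.79 nM, onto NOMO1 or SEM (500 cells/well) or P12-Ichikawa (1000 cells/well) leukemia cells in 1536-well plates (5 μl). Those cells had been adapted for at least four passages in each medium, and CellTiter-Glo One luminescence was read after 48 h at 37°C.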

SEM cells [2] = test: as above
Method in brief: as §1

NOMO1 [3] = test: as above
Method in brief: as §1

P12-Ichikawa [4] = test: AUC of viability dose-response curve (% viability x log10 dose units); higher = less sensitive
Method in brief: (§2)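 Viability of medium-adapted leukemia cells was measured by CellTiter-Glo One luminescence after 48 h at 37°C with library compounds in DMSO. Doses were 11 threefold steps from 47 μM to 0.79 nM, in 1536-well plates at 500 or 1000 cells/well. Signals were normalised per plate to DMSO and cell-free wells and fitted with a four-parameter log-logistic model on log10 dose. Area under the curve was integrated by trapezoidal rule, with curves exceeding full viability scaled and failed quality-control curves removed.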

SEM cells [5] = test: as above
Method in brief: as §2

NOMO1 [6] = test: as above
Method in brief: as §2

CC1(C)O[C@H]2CC(=O)OC[C@]23[C@H]2CC[C@@]4(C)[C@H](c5ccoc5)OC(=O)[C@H]5O[C@]54[C@]2(C)C(=O)C[C@@H]13
cell viability [%]
Conditions	NOMO1 [3]	P12-Ichikawa [1]	SEM cells [2]
HPLM + 10% dialyzed FBS, 0.000781 µM	114	95.9	84.1
HPLM + 10% dialyzed FBS, 0.00234 µM	91.3	107	86.8
HPLM + 10% dialyzed FBS, 0.00702 µM	98.8	101	95.3
HPLM + 10% dialyzed FBS, 0.0211 µM	84.5	105	96.2
HPLM + 10% dialyzed FBS, 0.0632 µM	99.4	110	108
HPLM + 10% dialyzed FBS, 0.19 µM	110	110	106
HPLM + 10% dialyzed FBS, 0.569 µM	99.2	115	104
HPLM + 10% dialyzed FBS, 1.71 µM	115	102	105
HPLM + 10% dialyzed FBS, 5.12 µM	114	115	96.7
HPLM + 10% dialyzed FBS, 15.4 µM	103	99.5	89.4
HPLM + 10% dialyzed FBS, 46.1 µM	87.7	110	98.7
RPMI 5 mM glucose + 10% FBS, 0.000781 µM	96.8	88.3	83.8
RPMI 5 mM glucose + 10% FBS, 0.00234 µM	89.8	102	98.8
RPMI 5 mM glucose + 10% FBS, 0.00702 µM	93.7	102	98.4
RPMI 5 mM glucose + 10% FBS, 0.0211 µM	96.1	93.8	88.8
RPMI 5 mM glucose + 10% FBS, 0.0632 µM	101	98.4	99.2
RPMI 5 mM glucose + 10% FBS, 0.19 µM	105	107	86
RPMI 5 mM glucose + 10% FBS, 0.569 µM	98.9	106	105
RPMI 5 mM glucose + 10% FBS, 1.71 µM	108	95.6	88.2
RPMI 5 mM glucose + 10% FBS, 5.12 µM	98.4	107	96.5
RPMI 5 mM glucose + 10% FBS, 15.4 µM	103	105	85.2
RPMI 5 mM glucose + 10% FBS, 46.1 µM	97.8	112	93.2
RPMI 5 mM glucose + 10% dialyzed FBS, 0.000781 µM	87.2	90.8	74.6
RPMI 5 mM glucose + 10% dialyzed FBS, 0.00234 µM	95.7	96.2	102
RPMI 5 mM glucose + 10% dialyzed FBS, 0.00702 µM	83	104	97.5
RPMI 5 mM glucose + 10% dialyzed FBS, 0.0211 µM	101	97.6	83.1
RPMI 5 mM glucose + 10% dialyzed FBS, 0.0632 µM	102	105	99
RPMI 5 mM glucose + 10% dialyzed FBS, 0.19 µM	98.5	95.2	90
RPMI 5 mM glucose + 10% dialyzed FBS, 0.569 µM	96.7	101	109
RPMI 5 mM glucose + 10% dialyzed FBS, 1.71 µM	110	100	76.6
RPMI 5 mM glucose + 10% dialyzed FBS, 5.12 µM	99.1	96.1	84.8
RPMI 5 mM glucose + 10% dialyzed FBS, 15.4 µM	109	98.2	102
RPMI 5 mM glucose + 10% dialyzed FBS, 46.1 µM	98	96.7	90

AUC of viability dose-response curve
Conditions	NOMO1 [6]	P12-Ichikawa [4]	SEM cells [5]
HPLM + 10% dialyzed FBS	462	468	463
RPMI 5 mM glucose + 10% FBS	465	446	444
RPMI 5 mM glucose + 10% dialyzed FBS	461	469	438

NC\1=N\C(=O)N(\C=N1)[C@H]2C[C@H](O)[C@@H](CO)O2
cell viability [%]
Conditions	NOMO1 [3]	P12-Ichikawa [1]	SEM cells [2]
HPLM + 10% dialyzed FBS, 0.000781 µM	110	101	57.8
HPLM + 10% dialyzed FBS, 0.00234 µM	138	103	100
HPLM + 10% dialyzed FBS, 0.00702 µM	101	106	94.7
HPLM + 10% dialyzed FBS, 0.0211 µM	115	108	97.2
HPLM + 10% dialyzed FBS, 0.0632 µM	101	115	118
HPLM + 10% dialyzed FBS, 0.19 µM	107	108	101
HPLM + 10% dialyzed FBS, 0.569 µM	91.4	101	89.8
HPLM + 10% dialyzed FBS, 1.71 µM	82.4	74.1	71.3
HPLM + 10% dialyzed FBS, 5.12 µM	60.2	42	41
HPLM + 10% dialyzed FBS, 15.4 µM	46.5	34.9	29.5
HPLM + 10% dialyzed FBS, 46.1 µM	43.6	32.3	16.5
RPMI 5 mM glucose + 10% FBS, 0.000781 µM	91.8	105	54.1
RPMI 5 mM glucose + 10% FBS, 0.00234 µM	106	110	91.3
RPMI 5 mM glucose + 10% FBS, 0.00702 µM	89.6	112	86
RPMI 5 mM glucose + 10% FBS, 0.0211 µM	92.8	118	92.9
RPMI 5 mM glucose + 10% FBS, 0.0632 µM	93.4	106	107
RPMI 5 mM glucose + 10% FBS, 0.19 µM	93.7	103	92
RPMI 5 mM glucose + 10% FBS, 0.569 µM	98.9	97.2	81.8
RPMI 5 mM glucose + 10% FBS, 1.71 µM	85.4	70	63.8
RPMI 5 mM glucose + 10% FBS, 5.12 µM	71.1	37.6	32.2
RPMI 5 mM glucose + 10% FBS, 15.4 µM	51.8	26.5	22.2
RPMI 5 mM glucose + 10% FBS, 46.1 µM	31.5	27.5	12.1
RPMI 5 mM glucose + 10% dialyzed FBS, 0.000781 µM	109	107	55.1
RPMI 5 mM glucose + 10% dialyzed FBS, 0.00234 µM	122	109	99.4
RPMI 5 mM glucose + 10% dialyzed FBS, 0.00702 µM	107	103	81
RPMI 5 mM glucose + 10% dialyzed FBS, 0.0211 µM	112	106	84.3
RPMI 5 mM glucose + 10% dialyzed FBS, 0.0632 µM	98.6	105	91.4
RPMI 5 mM glucose + 10% dialyzed FBS, 0.19 µM	109	107	93.3
RPMI 5 mM glucose + 10% dialyzed FBS, 0.569 µM	114	102	67.5
RPMI 5 mM glucose + 10% dialyzed FBS, 1.71 µM	96.7	72.5	49.1
RPMI 5 mM glucose + 10% dialyzed FBS, 5.12 µM	76.5	37.2	32
RPMI 5 mM glucose + 10% dialyzed FBS, 15.4 µM	65.9	30.3	27.5
RPMI 5 mM glucose + 10% dialyzed FBS, 46.1 µM	36.1	31.4	21.2

AUC of viability dose-response curve
Conditions	NOMO1 [6]	P12-Ichikawa [4]	SEM cells [5]
HPLM + 10% dialyzed FBS	375	382	362
RPMI 5 mM glucose + 10% FBS	402	368	327
RPMI 5 mM glucose + 10% dialyzed FBS	417	378	309

Reference: the supplement of paper PMC11451515
